Columns and labels:
[1] = target: T1, Human Calpain 2/NS1 (Homo sapiens, UniProt P17655); test: Biochemical inhibition of Calpain 2, continuous fluorescence (FRET) assay; conditions: mean; class symbols; read-out: Human Calpain 2/NS1 IC50 (nM)_MEAN
T1 sequence (P17655 1-700): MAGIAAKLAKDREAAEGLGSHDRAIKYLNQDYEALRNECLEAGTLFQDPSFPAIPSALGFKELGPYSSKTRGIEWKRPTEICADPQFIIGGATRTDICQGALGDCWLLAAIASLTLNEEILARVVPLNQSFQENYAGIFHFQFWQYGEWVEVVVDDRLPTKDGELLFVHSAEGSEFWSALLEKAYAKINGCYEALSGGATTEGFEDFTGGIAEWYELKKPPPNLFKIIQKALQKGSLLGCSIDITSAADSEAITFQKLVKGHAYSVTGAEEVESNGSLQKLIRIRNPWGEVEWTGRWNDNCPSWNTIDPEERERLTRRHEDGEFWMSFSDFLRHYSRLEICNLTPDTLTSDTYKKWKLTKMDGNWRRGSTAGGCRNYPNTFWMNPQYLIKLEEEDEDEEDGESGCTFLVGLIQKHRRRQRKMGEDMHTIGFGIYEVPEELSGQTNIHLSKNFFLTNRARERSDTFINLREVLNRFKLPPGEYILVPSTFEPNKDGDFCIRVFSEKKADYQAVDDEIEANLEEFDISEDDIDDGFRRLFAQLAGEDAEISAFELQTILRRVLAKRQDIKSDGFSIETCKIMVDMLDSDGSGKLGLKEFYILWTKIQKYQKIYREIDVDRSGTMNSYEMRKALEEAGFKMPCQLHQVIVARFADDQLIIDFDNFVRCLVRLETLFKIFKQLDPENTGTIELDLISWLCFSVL
T1 sequence (P04632 1-268 partner): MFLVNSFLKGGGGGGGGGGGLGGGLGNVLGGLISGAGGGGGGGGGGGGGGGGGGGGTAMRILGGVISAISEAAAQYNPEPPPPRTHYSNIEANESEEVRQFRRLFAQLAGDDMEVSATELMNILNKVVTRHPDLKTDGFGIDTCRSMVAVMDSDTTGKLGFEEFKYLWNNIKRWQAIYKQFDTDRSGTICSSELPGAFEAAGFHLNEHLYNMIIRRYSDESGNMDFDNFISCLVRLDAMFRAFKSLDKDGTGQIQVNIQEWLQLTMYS
Protocol: (§1) Biochemical inhibition of Calpains 1, 2, and 9.
(§2) Calpains 1, 2, and 9 activity and inhibition thereof are assessed by means of a continuous fluorescence assay. The SensoLyte 520 Calpain substrate (Anaspec Inc) is optimized for detecting calpain activity. This substrate contains a novel internally quenched 5-FAM/QXLTM 520 FRET pair. Calpains 1, 2 and 9 cleave the FRET substrate into two separate fragments resulting in an increase of 5-FAM fluorescence that is proportional to calpain activity.
(§3) Assays are typically setup in black 384-well plates using automated liquid handling as follows. Calpain assay base buffer typically contains 50 mM Tris, pH 7.5, 100 mM NaCl and 1 mM DTT. Inhibitors are serially diluted in DMSO and used to setup 2× mixtures with calpains in the aforementioned buffer. After incubation at ambient temperature (25 C), the reaction is initiated by adding a 2× mix of the fluorescent peptide substrate and CaCl2 (required for in-situ calpain activation) in the same buffer. Reaction progress curve data are typically collected for 10 min using excitation/emission wavelengths of 490 nm/520 nm on SpectraMax i3x or the FLIPR-Tetra plate readers (Molecular Devices Inc). Reaction rates were calculated from progress curve slopes typically over 1-5 min. Dose response curves (rate vs. log inhibitor concentration) were typically fit to a 4-parameter logistic function to extract IC50 values.
Column B: Human Calpain 2/NS1 IC50 (nM)_MEAN

[2] = target: T2, Human Calpain 9/NS1 (Homo sapiens, UniProt O14815); test: Biochemical inhibition of Calpain 9, continuous fluorescence (FRET) assay; conditions: mean; class symbols; read-out: Human Calpain 9/NS1 IC50 (nM)_MEAN
T2 sequence (O14815 1-690): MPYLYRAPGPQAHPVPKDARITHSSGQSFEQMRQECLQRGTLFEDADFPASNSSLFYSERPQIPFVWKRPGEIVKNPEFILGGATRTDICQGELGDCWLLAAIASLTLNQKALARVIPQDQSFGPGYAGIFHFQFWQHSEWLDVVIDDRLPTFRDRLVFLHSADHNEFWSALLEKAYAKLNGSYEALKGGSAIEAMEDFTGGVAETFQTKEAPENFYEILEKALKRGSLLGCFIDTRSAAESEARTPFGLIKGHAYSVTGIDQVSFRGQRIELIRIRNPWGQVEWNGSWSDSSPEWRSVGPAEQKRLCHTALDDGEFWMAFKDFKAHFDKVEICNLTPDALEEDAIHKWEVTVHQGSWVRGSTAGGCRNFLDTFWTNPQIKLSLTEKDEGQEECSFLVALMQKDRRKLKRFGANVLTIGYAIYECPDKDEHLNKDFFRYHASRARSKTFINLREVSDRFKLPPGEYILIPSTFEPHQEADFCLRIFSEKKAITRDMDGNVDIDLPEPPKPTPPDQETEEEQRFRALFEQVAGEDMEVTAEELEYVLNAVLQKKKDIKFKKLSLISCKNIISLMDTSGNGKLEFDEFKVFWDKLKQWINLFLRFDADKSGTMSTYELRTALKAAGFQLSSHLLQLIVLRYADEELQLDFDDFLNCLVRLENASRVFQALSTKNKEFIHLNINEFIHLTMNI
T2 sequence (P04632 1-268 partner): T1 sequence (P04632 1-268 partner)
Protocol: as §1, §2, §3
Column C: Human Calpain 9/NS1 IC50 (nM)_MEAN • A: <3 uM; • B: 3-10 uM; • C: >10 uM;

[3] = target: T3, Human Calpain 1/NS1 (Homo sapiens, UniProt P07384); test: Biochemical inhibition of Calpain 1, continuous fluorescence (FRET) assay; conditions: mean; class symbols; read-out: Human Calpain 1/NS1 IC50 (nM)_MEAN
T3 sequence (P07384 1-714): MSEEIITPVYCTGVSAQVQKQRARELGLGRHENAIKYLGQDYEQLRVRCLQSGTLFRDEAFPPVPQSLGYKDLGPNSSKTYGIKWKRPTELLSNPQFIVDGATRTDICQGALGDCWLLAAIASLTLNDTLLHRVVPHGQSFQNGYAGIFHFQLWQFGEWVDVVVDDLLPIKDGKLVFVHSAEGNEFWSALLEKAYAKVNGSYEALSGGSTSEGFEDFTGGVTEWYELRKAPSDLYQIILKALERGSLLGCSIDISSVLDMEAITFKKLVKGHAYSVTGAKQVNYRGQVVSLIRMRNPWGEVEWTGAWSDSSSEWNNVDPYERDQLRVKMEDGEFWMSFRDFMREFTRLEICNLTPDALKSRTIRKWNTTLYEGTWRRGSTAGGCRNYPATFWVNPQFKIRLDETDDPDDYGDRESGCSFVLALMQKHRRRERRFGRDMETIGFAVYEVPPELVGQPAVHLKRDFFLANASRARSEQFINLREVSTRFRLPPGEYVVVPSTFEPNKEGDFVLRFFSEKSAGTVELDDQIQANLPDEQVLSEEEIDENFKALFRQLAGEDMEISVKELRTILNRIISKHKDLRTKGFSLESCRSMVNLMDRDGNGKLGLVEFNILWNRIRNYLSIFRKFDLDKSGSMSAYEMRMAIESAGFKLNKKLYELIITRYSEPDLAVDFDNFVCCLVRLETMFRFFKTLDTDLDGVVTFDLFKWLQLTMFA
T3 sequence (P04632 1-268 partner): T1 sequence (P04632 1-268 partner)
Protocol: as §1, §2, §3
Column A: Human Calpain 1/NS1 IC50 (nM)_MEAN

IC50 [1] [nM] | IC50 [2] [nM] | IC50 [3] [nM] | SMILES
3000 to 10000 | > 10000 | 3000 to 10000 | CC(C)[C@H](NC(=O)OCc1ccccc1)C(=O)NC1CCCNC(=O)C1=O (stereo partly drawn) [Compound 1]
3000 to 10000 | > 10000 | > 10000 | CC(C)C[C@H](NC(=O)[C@@H](NC(=O)OCc1ccccc1)C(C)C)C(=O)NC1CCCNC(=O)C1=O (stereo partly drawn) [Compound 2]
> 10000 | > 10000 | > 10000 | CC(C)[C@H](NS(=O)(=O)c1ccc(F)cc1)C(=O)NC1CCCNC(=O)C1=O (stereo partly drawn) [Compound 3]
< 3000 | < 3000 | < 3000 | CC(C)[C@H](NC(=O)OCc1ccccc1)C(=O)NC1CCCCCCNC(=O)C1=O (stereo partly drawn) [Compound 4]
> 10000 | > 10000 | > 10000 | CC(C)[C@H](NC(=O)OCc1ccccc1)C(=O)NC1CCNC(=O)C1=O (stereo partly drawn) [Compound 5]
> 10000 | > 10000 | > 10000 | CC(C)[C@H](NC(=O)OCc1ccccc1)C(=O)NC1CCCN(C)C(=O)C1=O (stereo partly drawn) [Compound 6]
< 3000 | < 3000 | 3000 to 10000 | O=C1NCCCCCC[C@H](NC(=O)c2ccccc2-c2ccccc2)C1=O [Compound 8]
< 3000 | < 3000 | < 3000 | CC(C)[C@H](NC(=O)OCc1ccccc1)C(=O)N[C@H]1CCCCCCCNC(=O)C1=O [Compound 9]

— patent US10590084B2, “Cyclic keto-amide compounds as calpain modulators and methods of production and use thereof” (Blade Therapeutics, Inc., priority 2016, dated 2020)
